Measurements as given in patent US20250170267A1, “ANTIBODY-DRUG CONJUGATE PRECURSOR AND INTERMEDIATE FOR SYNTHESIS THEREOF” (UBE Corporation, priority 2022, published 2025).
Where two headings read alike, the source gives them in different places. Numbered stars: 1 amine (or outer) side, 2 acyl side, 3 side chain; on linkers, the order of the positions; unused ones are H or OH. Square brackets hold non-standard residues; d marks the D form. Peptide text beside a SMILES is read from it. * marks the point of attachment. Exatecan = CC[C@@]1(O)C(=O)OCc2c1cc1n(c2=O)Cc2c-1nc1cc(F)c(C)c3c1c2[C@@H](N*)CC3; X7 = C[C@@H](N*)[C@@H](OC(=O)OCc1cn(C2OC(C(=O)O)C(O)C(O)C2O)nn1)c1ccccc1; Dolaproine = CO[C@@H]([C@@H]1CCCN1)[C@@H](C)C(=O)O; Propanoyl(3-maleimido) = O=C1C=CC(=O)N1CCC(=O)*; X5 = C[C@@H](N[*:1])[C@@H](OC(=O)[*:2])c1ccccc1; NH(CH2CH2O)8Me = COCCOCCOCCOCCOCCOCCOCCOCCN*; X10 = COCCOC(=O)O[C@@H](c1ccccc1)[C@@H](C)N*; Dil = CC[C@H](C)[C@H](NC)[C@@H](CC(=O)O)OC; X3 = C[C@@H](N*)[C@@H](OP(=O)(O)O)c1ccccc1; X6 = O=C(O)C1OC(n2cc(CN*)nn2)C(O)C(O)C1O; PABC = O=C(OCc1ccc(N[*:1])cc1)[*:2]; X1 = C[C@@H](N*)[C@@H](O)c1ccccc1; hSer(lactone) = O=C1OCC[C@@H]1N*; Cit = NC(=O)NCCC[C@H](N)C(=O)O; PEG4 = NCCOCCOCCOCCOCCC(=O)O; NMeV = CN[C@H](C(=O)O)C(C)C; X8 = c1[nH]nnc1CN*; Sar = CNCC(=O)O

What was measured:
porcine tubulin = biological target: T1, porcine tubulin (Sus scrofa, UniProt P02550+P02554); assay: Tubulin polymerization inhibition test; type: biochemical
T1 construct: purchased Cytoskeleton, Inc. BK011P
T1 sequence (P02550 whole entry): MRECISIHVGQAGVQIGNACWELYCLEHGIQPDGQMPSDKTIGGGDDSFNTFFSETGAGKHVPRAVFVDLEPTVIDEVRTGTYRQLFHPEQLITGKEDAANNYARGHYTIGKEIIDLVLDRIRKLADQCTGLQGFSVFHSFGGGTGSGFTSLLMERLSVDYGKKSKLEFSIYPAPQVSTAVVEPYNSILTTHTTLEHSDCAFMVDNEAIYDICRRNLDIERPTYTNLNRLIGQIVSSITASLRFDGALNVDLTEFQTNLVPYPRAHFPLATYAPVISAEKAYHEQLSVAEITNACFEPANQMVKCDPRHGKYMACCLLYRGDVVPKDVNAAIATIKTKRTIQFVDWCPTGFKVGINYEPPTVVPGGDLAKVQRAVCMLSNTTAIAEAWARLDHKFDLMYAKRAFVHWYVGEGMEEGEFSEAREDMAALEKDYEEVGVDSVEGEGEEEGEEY
T1 sequence (P02554 whole entry): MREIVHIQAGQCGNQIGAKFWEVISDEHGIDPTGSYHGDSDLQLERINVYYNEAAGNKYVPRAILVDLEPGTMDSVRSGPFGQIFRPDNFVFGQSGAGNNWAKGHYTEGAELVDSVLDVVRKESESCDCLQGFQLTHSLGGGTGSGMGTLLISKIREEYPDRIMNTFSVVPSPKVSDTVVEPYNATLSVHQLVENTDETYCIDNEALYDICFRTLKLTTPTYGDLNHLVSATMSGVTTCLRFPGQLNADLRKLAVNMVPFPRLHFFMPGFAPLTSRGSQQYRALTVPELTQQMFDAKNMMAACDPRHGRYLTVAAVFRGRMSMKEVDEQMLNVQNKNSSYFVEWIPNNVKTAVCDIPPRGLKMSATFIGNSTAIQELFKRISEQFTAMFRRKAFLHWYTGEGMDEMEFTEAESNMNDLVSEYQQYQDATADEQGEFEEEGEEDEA
Description: For measuring the tubulin polymerization inhibitory action, Tubulin Polymerization Assay Kit (manufactured by Cytoskeleton, Inc., BK011P) was used. A PIPES buffer containing porcine tubulin, GTP, MgCl2, EGTA, Glycerol, and a fluorescent reporter was prepared under ice-cooling as a reaction solution. The reaction solution was ice-cooled until it was used. A test compound solution was prepared by an aqueous solution containing 1.5% DMSO, and added to a 96 well plate (manufactured by Corning Inc., 3686) at 5 μL/well. The reaction solution was added thereto at 50 μL/well, the plate was placed in a microplate reader (FlexStation 3, manufactured by Molecular Device, LLC) in which the internal temperature was set to 37° C. in advance, and the fluorescence intensity measurement (excitation wavelength: 360 nm, detection wavelength: 420 nm) of each well was started. The fluorescence intensity was measured once every minute, and the measurement was continued for 60 minutes.
The tubulin polymerization inhibition rate (%) was calculated by the following equation.
[formula] • a: average amount of fluorescence intensity increase in vehicle-treated well (n=2) • b: average amount of fluorescence intensity increase in test compound-treated well (n=2)
Amount of fluorescence intensity increase: (average fluorescence intensity after 51 to 60 minutes from measurement start)−(average fluorescence intensity after 1 to 6 minutes from measurement start)

human liver Cathepsin B = biological target: T2, human liver Cathepsin B (Homo sapiens, UniProt P07858); assay: Metabolism test using human liver Cathepsin B; type: in vitro ADME; settings: 37° C., 24 hours, released drug, LC-MS/MS
T2 construct: human liver Cathepsin B (manufactured by Sigma-Aldrich Co. LLC, Cat No. C8571 25 μg/vial); purchased Sigma-Aldrich Co. LLC C8571; host or cells: human liver
Description: To human liver Cathepsin B (manufactured by Sigma-Aldrich Co. LLC, Cat No. C8571 25 μg/vial)(corresponding to 400 Unit/mL)(5 μL), X10 Catabolic Buffer (manufactured by SEKISUI-Xenotech, LLC., K5200)(10 μL), 2.5 mM Bovine Serum Albumin (manufactured by FUJIFILM Wako Pure Chemical Corporation, Cat No. 012-15093)(5 μL), and distilled water (manufactured by FUJIFILM Wako Pure Chemical Corporation, for HPLC)(55 μL) was added 1.2 μM test compound (antibody-drug conjugate prepared in ADC Production examples)(25 μL) dissolved in PBS to prepare a reaction solution. After the reaction solution was incubated at 37° C. for 24 hours, “an antitumor drug molecule or an analog thereof, or a derivative thereof” released from the antibody-drug conjugate into the reaction solution was quantified by LC-MS/MS (high performance liquid chromatography/mass spectrometer system) under the following conditions. LC-MS/MS analysis conditions
(§1) LC: LC20 or LC30 HPLC system manufactured by Shimadzu Corporation
(§2) Column: Phenomenex Kinetex C18 (50×2.1 mm, 2.6 μm)
(§3) Column temperature: 40° C.
(§4) Mobile phase A: 0.1% aqueous solution of formic acid, Mobile phase B: 0.1% solution of formic acid in a mixture of 50% acetonitrile/methanol
(§5) Mode: Positive or Negative
(§6) The release rate (%) of drug was calculated by the following equation.

human liver lysosome = assay: Metabolism test using human liver lysosomal fraction; type: in vitro ADME; settings: 37° C., 24 hours, released drug, LC-MS/MS
Description: To a reaction composition solution (X10 Catabolic Buffer (manufactured by SEKISUI-Xenotech, LLC., K5200))(60 μL) in which human liver lysosome (manufactured by SEKISUI-Xenotech, LLC., Cat No. H610.L 2.5 mg/mL)(corresponding to 0.125 mg of protein) was suspended and distilled water (manufactured by FUJIFILM Wako Pure Chemical Corporation, for HPLC)(10 μL) was added 1.2 μM test compound (antibody-drug conjugate produced in ADC Production examples)(25 μL) dissolved in PBS to prepare a reaction solution. After the reaction solution was incubated at 37° C. for 24 hours, “an antitumor drug molecule or an analog thereof, or a derivative thereof” released from the antibody-drug conjugate into the reaction solution was quantified by LC-MS/MS (high performance liquid chromatography/mass spectrometer system) under the following conditions. LC-MS/MS analysis conditions
as §1, §2, §3, §4, §5, §6

[1] = porcine tubulin, 37° C., fluorescence over 60 minutes, read-out: IC50 value (tubulin polymerization inhibition)

Compound | IC50 (porcine tubulin; [1]) [µM] | further results
CC[C@H](C)[C@@H]([C@@H](CC(=O)N1CCC[C@H]1[C@H](OC)[C@@H](C)C(=O)N[C@H](C)[C@@H](O)c1ccccc1)OC)N(C)C(=O)[C@@H](NC(=O)[C@H](C(C)C)N(C)CCCC(=O)N[C@H]1CCc2c(C)c(F)cc3nc4c(c1c23)Cn1c-4cc2c(c1=O)COC(=O)[C@]2(O)CC)C(C)C [Example U-017] |  | IC50 (porcine tubulin): ≤ 3 µM
CC[C@H](C)[C@@H]([C@@H](CC(=O)N1CCC[C@H]1[C@H](OC)[C@@H](C)C(=O)N[C@H](C)[C@@H](O)c1ccccc1)OC)N(C)C(=O)[C@@H](NC(=O)[C@H](C(C)C)N(C)C(=O)CNC(=O)CN)C(C)C [Example U-009] (H-GG[NMeV]V[Dil][Dolaproine]-X1) | ≤ 3 | 
CCN(CC(=O)N[C@H]1CCc2c(C)c(F)cc3nc4c(c1c23)Cn1c-4cc2c(c1=O)COC(=O)[C@]2(O)CC)C(=O)OCc1ccc(NC(=O)[C@H](CCCNC(N)=O)NC(=O)[C@@H](NC(=O)[C@H](CC(=O)N[C@H]2CCOC2=O)NC(=O)CCOCCOCCOCCOCCNC(=O)[C@H](CNC(=O)CCP(=O)(O)O)N2C(=O)C=CC2=O)C(C)C)cc1 [Example 9] |  | Release rate (%) of drug from ADC (human liver Cathepsin B): 40%; Release rate (%) of drug from ADC (human liver lysosome): 98%
CC[C@H](C)[C@@H]([C@@H](CC(=O)N1CCC[C@H]1[C@H](OC)[C@@H](C)C(=O)N[C@H](C)[C@@H](O)c1ccccc1)OC)N(C)C(=O)[C@@H](NC(=O)[C@H](C(C)C)N(C)CCONC)C(C)C [Example U-013] | ≤ 3 | 
CC[C@@]1(OC(=O)OCc2ccc(NC(=O)[C@H](CCCNC(N)=O)NC(=O)[C@@H](NC(=O)[C@H](CC(=O)N[C@H]3CCOC3=O)NC(=O)CCOCCOCCOCCOCCNC(=O)[C@H](CNC(=O)CCP(=O)(O)O)N3C(=O)C=CC3=O)C(C)C)cc2)C(=O)OCc2c1cc1n(c2=O)Cc2c-1nc1cc(F)c(C)c3c1c2[C@@H](NC(C)=O)CC3 [Example 10] |  | Release rate (%) of drug from ADC (human liver Cathepsin B): 28%; Release rate (%) of drug from ADC (human liver lysosome): 61%
CC[C@H](C)[C@@H]([C@@H](CC(=O)N1CCC[C@H]1[C@H](OC)[C@@H](C)C(=O)N[C@H](C)[C@@H](O)c1ccccc1)OC)N(C)C(=O)[C@@H](NC(=O)[C@H](C(C)C)N(C)CCc1ccc(N)cc1F)C(C)C [Example U-016] | ≤ 3 | 
CC[C@H](C)[C@@H]([C@@H](CC(=O)N1CCC[C@H]1[C@H](OC)[C@@H](C)C(=O)N[C@H](C)[C@@H](OC(=O)OCc1cn(C2OC(C(=O)O)C(O)C(O)C2O)nn1)c1ccccc1)OC)N(C)C(=O)[C@@H](NC(=O)[C@@H](NC)C(C)C)C(C)C (stereo partly drawn) [Example U-020] (H-[NMeV]V[Dil][Dolaproine]-X7) | ≤ 3 | 
CC[C@H](C)[C@@H]([C@@H](CC(=O)N1CCC[C@H]1[C@H](OC)[C@@H](C)C(=O)N[C@H](C)[C@@H](OC(=O)NCc1cn(C2OC(C(=O)O)C(O)C(O)C2O)nn1)c1ccccc1)OC)N(C)C(=O)[C@@H](NC(=O)[C@@H](NC)C(C)C)C(C)C (stereo partly drawn) [Example U-019] (H-[NMeV]V[Dil][Dolaproine][X5]-X6) | ≤ 3 | 
CC[C@H](C)[C@@H]([C@@H](CC(=O)N1CCC[C@H]1[C@H](OC)[C@@H](C)C(=O)N[C@H](C)[C@@H](OP(=O)(O)O)c1ccccc1)OC)N(C)C(=O)[C@@H](NC(=O)[C@H](C(C)C)N(C)C)C(C)C [Example U-031] | ≤ 3 | 
CC[C@H](C)[C@@H]([C@@H](CC(=O)N1CCC[C@H]1[C@H](OC)[C@@H](C)C(=O)N[C@H](C)[C@@H](O)c1ccccc1)OC)N(C)C(=O)[C@@H](NC(=O)[C@H](C(C)C)N(C)Cc1cc(N)ccc1F)C(C)C [Example U-008] | ≤ 3 | 
CC[C@@]1(O)C(=O)OCc2c1cc1n(c2=O)Cc2c-1nc1cc(F)c(C)c3c1c2[C@@H](NC(=O)COP(=O)(O)OCc1ccc(NC(=O)[C@H](CCCNC(N)=O)NC(=O)[C@@H](NC(=O)[C@H](CC(=O)N[C@H]2CCOC2=O)NC(=O)CCOCCOCCOCCOCCNC(=O)[C@H](CNC(=O)CCP(=O)(O)O)N2C(=O)C=CC2=O)C(C)C)cc1)CC3 [Example 12] |  | Release rate (%) of drug from ADC (human liver Cathepsin B): 106%; Release rate (%) of drug from ADC (human liver lysosome): 3.5%
CC[C@@]1(O)C(=O)OCc2c1cc1n(c2=O)Cc2c-1nc1cc(F)c(C)c3c1c2[C@@H](NC(=O)CN(C)C(=O)OCc1ccc(NC(=O)[C@H](CCCNC(N)=O)NC(=O)[C@@H](NC(=O)[C@H](CC(=O)N[C@H]2CCOC2=O)NC(=O)CCOCCOCCOCCOCCNC(=O)CCN2C(=O)C=CC2=O)C(C)C)cc1)CC3 [Example 4] ({Propanoyl(3-maleimido)-PEG4}-D(hSer(lactone))V[Cit][PABC][Sar]-Exatecan) |  | Release rate (%) of drug from ADC (human liver Cathepsin B): 97%; Release rate (%) of drug from ADC (human liver lysosome): 76%
CC[C@H](C)[C@@H]([C@@H](CC(=O)N1CCC[C@H]1[C@H](OC)[C@@H](C)C(=O)N[C@H](C)[C@@H](O)c1ccccc1)OC)N(C)C(=O)[C@@H](NC(=O)[C@H](C(C)C)N(C)C)C(C)C [Example U-010] |  | IC50 (porcine tubulin): ≤ 3 µM
CC[C@H](C)[C@@H]([C@@H](CC(=O)N1CCC[C@H]1[C@H](OC)[C@@H](C)C(=O)N[C@H](C)[C@@H](OP(=O)(O)O)c1ccccc1)OC)N(C)C(=O)[C@@H](NC(=O)[C@@H](NC)C(C)C)C(C)C [Example U-030] (H-[NMeV]V[Dil][Dolaproine]-X3) | ≤ 3 | 
CC[C@@]1(OC(=O)OCc2ccc(NC(=O)[C@H](CCCNC(N)=O)NC(=O)[C@@H](NC(=O)[C@H](CC(=O)N[C@H]3CCOC3=O)NC(=O)CCOCCOCCOCCOCCNC(=O)[C@H](CNC(=O)CCP(=O)(O)O)N3C(=O)C=CC3=O)C(C)C)cc2)C(=O)OCc2c1cc1n(c2=O)Cc2c-1nc1cc(F)c(C)c3c1c2[C@@H](NC(=O)CO)CC3 [Example 11] |  | Release rate (%) of drug from ADC (human liver Cathepsin B): 30%; Release rate (%) of drug from ADC (human liver lysosome): 64%
CC[C@H](C)[C@@H]([C@@H](CC(=O)N1CCC[C@H]1[C@H](OC)[C@@H](C)C(=O)N[C@H](C)[C@@H](OC(=O)NCc1c[nH]nn1)c1ccccc1)OC)N(C)C(=O)[C@@H](NC(=O)[C@@H](NC)C(C)C)C(C)C [Example U-021] (H-[NMeV]V[Dil][Dolaproine][X5]-X8) | ≤ 3 | 
CC[C@H](C)[C@@H]([C@@H](CC(=O)N1CCC[C@H]1[C@H](OC)[C@@H](C)C(=O)N[C@H](C)[C@@H](OC(=O)OCCOC)c1ccccc1)OC)N(C)C(=O)[C@@H](NC(=O)[C@@H](NC)C(C)C)C(C)C [Example U-012] (H-[NMeV]V[Dil][Dolaproine]-X10) | ≤ 3 | 
CC[C@H](C)[C@@H]([C@@H](CC(=O)N1CCC[C@H]1[C@H](OC)[C@@H](C)C(=O)N[C@H](C)[C@@H](OC(=O)NCCOCCOCCOCCOCCOCCOCCOCCOC)c1ccccc1)OC)N(C)C(=O)[C@@H](NC(=O)[C@@H](NC)C(C)C)C(C)C [Example U-011] (H-[NMeV]V[Dil][Dolaproine][X5]-{NH(CH2CH2O)8Me}) | ≤ 3 | 
CC[C@H](C)[C@@H]([C@@H](CC(=O)N1CCC[C@H]1[C@H](OC)[C@@H](C)C(=O)N[C@H](C)[C@@H](OC(=O)NCCOCCOCCOCCOCCOCCOCCOCCOCCOCCOCCOCCOC)c1ccccc1)OC)N(C)C(=O)[C@@H](NC(=O)[C@@H](NC)C(C)C)C(C)C [Example U-015] | ≤ 3 | 
